The source made the active and inactive calls. The rule behind the calls is not given here.
Key:
Bcr/Abl fusion protein [1] = target: Bcr/Abl fusion protein (Homo sapiens, UniProt P00519, T315I); assay: Inhibition of BCR-ABL T315I mutant (unknown origin) incubated for 40 mins in presence of [gamma33P]ATP by scintillation method; assay type: protein assay
K562 [2] = assay: Antiproliferative activity against human K562 cells assessed as cell growth inhibition incubated for 72 hrs by MTT assay; assay type: functional
[3] = Antiproliferative activity against human L132 cells assessed as cell growth inhibition incubated for 72 hrs by MTT assay; assay type: cell-based
CCRF-CEM [4] = assay: Antiproliferative activity against human CCRF-CEM cells assessed as cell growth inhibition at 10 uM measured after 48 hrs by SRB assay relative to control; assay type: functional; settings: read-out: GI
RPMI-8226 [5] = assay: Antiproliferative activity against human RPMI-8226 cells assessed as cell growth inhibition at 10 uM measured after 48 hrs by SRB assay relative to control; assay type: functional; settings: read-out: GI
K562 [6] = assay: Antiproliferative activity against human K562 cells assessed as cell growth inhibition measured after 48 hrs by SRB assay; assay type: functional
MOLT-4 [7] = assay: Antiproliferative activity against human MOLT-4 cells assessed as cell growth inhibition at 10 uM measured after 48 hrs by SRB assay relative to control; assay type: functional; settings: read-out: GI
SR [8] = assay: Antiproliferative activity against human SR cells assessed as cell growth inhibition at 10 uM measured after 48 hrs by SRB assay relative to control; assay type: functional; settings: read-out: GI
HL-60(TB) [9] = assay: Antiproliferative activity against human HL-60(TB) cells assessed as cell growth inhibition at 10 uM measured after 48 hrs by SRB assay relative to control; assay type: functional
Bcr/Abl fusion protein [10] = target: Bcr/Abl fusion protein (Homo sapiens, UniProt P00519); assay: Inhibition of wild type BCR-ABL (unknown origin) incubated for 40 mins in presence of [gamma33P]ATP by scintillation method; assay type: protein assay
CCRF-CEM [11] = assay: Antiproliferative activity against human CCRF-CEM cells assessed as cell growth inhibition measured after 48 hrs by SRB assay; assay type: functional
RPMI-8226 [12] = assay: Antiproliferative activity against human RPMI-8226 cells assessed as cell growth inhibition measured after 48 hrs by SRB assay; assay type: functional
K562 [13] = assay: Antiproliferative activity against human K562 cells assessed as cell growth inhibition at 10 uM measured after 48 hrs by SRB assay relative to control; assay type: functional; settings: read-out: GI
SR [14] = assay: Antiproliferative activity against human SR cells assessed as cell growth inhibition measured after 48 hrs by SRB assay; assay type: functional
[15] = Selectivity index, ratio of GI50 for human HL60(TB) cells to GI50 for human K562 cells; assay type: functional
HL-60(TB) [16] = assay: Antiproliferative activity against human HL-60(TB) cells assessed as cell growth inhibition measured after 48 hrs by SRB assay; assay type: functional
MOLT-4 [17] = assay: Antiproliferative activity against human MOLT-4 cells assessed as cell growth inhibition measured after 48 hrs by SRB assay; assay type: functional

Q: Which IC50 (Bcr/Abl fusion protein [1]) does the source give for `Nc1n[nH]c2cccc(C#Cc3cccc(NC(=O)c4cc(C(F)(F)F)cc(C(F)(F)F)c4)c3)c12` here?
A: Its IC50 is over 20000 nM.

Q: And the GI50 (K562 [2])?
A: Its GI50 is over 10000 nM.

Q: For `Nc1n[nH]c2cccc(C#Cc3cccc(C(=O)Nc4cccc(C(F)(F)F)c4)c3)c12`, which IC50 (Bcr/Abl fusion protein [1]) is on record?
A: The IC50 was 2260 nM.

Q: And the GI50 (K562 [2])?
A: Its GI50 is 3470 nM.

Q: What about the GI50 at 72 h [3] of the same compound?
A: The GI50 at 72 h was 15300 nM.

Q: For `Nc1n[nH]c2cccc(C#Cc3cccc(NC(=O)c4cc(F)cc(C(F)(F)F)c4)c3)c12`, which IC50 (Bcr/Abl fusion protein [1]) is on record?
A: The IC50 was 5280 nM.

Q: And the GI50 (K562 [2])?
A: The GI50 was 2140 nM.

Q: What about the GI50 at 72 h [3] of the same compound?
A: Its GI50 at 72 h is over 100000 nM.

Q: With `CN1CCN(c2ccc(C(=O)Nc3cccc(C#Cc4cccc5[nH]nc(N)c45)c3)cc2C(F)(F)F)CC1` as the compound, how does the GI50 (K562 [2]) read?
A: The GI50 was 1480 nM.

Q: And the GI50 at 72 h [3]?
A: Its GI50 at 72 h is over 10000 nM.

Q: For `Cc1ccc(NC(=O)c2ccc(CN3CCN(C)CC3)cc2)cc1Nc1nccc(-c2cccnc2)n1` [IMATINIB], which inhibition of growth at 10 µM (CCRF-CEM [4]) is on record?
A: Its inhibition of growth at 10 µM is 6.6%.

Q: And the inhibition of growth at 10 µM (RPMI-8226 [5])?
A: Its inhibition of growth at 10 µM is 12.6%.

Q: What about the GI50 (K562 [6]) of the same compound?
A: Its GI50 is 20 nM.

Q: What about the inhibition of growth at 10 µM (MOLT-4 [7]) of the same compound?
A: The inhibition of growth at 10 µM was 18%.

Q: What about the inhibition of growth at 10 µM (SR [8]) of the same compound?
A: Its inhibition of growth at 10 µM is 14.6%.

Q: And the “growth inhibition (GI)” value (HL-60(TB) [9])?
A: Its value is “inactive”.

Q: And the GI50 (K562 [2])?
A: Its GI50 is 800 nM.

Q: And the GI50 at 72 h [3]?
A: Its GI50 at 72 h is over 10000 nM.

Q: For `Nc1n[nH]c2cccc(C#Cc3cccc(NC(=O)c4cccc(C(F)(F)F)c4)c3)c12`, which IC50 (Bcr/Abl fusion protein [1]) is on record?
A: Its IC50 is 2550 nM.

Q: What about the GI50 (K562 [2]) of the same compound?
A: Its GI50 is 1540 nM.

Q: What about the GI50 at 72 h [3] of the same compound?
A: Its GI50 at 72 h is over 100000 nM.

Q: Which results are given for `Cc1ccc(C(=O)Nc2cccc(C#Cc3cccc4[nH]nc(N)c34)c2)cc1C(F)(F)F`?
A: GI50 (K562 [2]): 2350 nM; GI50 at 72 h [3]: > 100000 nM

Q: Which IC50 (Bcr/Abl fusion protein [1]) does the source give for `Nc1n[nH]c2cccc(C#Cc3cccc(NC(=O)c4cc(N5CCOCC5)cc(C(F)(F)F)c4)c3)c12` here?
A: The IC50 was 4840 nM.

Q: What about the GI50 (K562 [2]) of the same compound?
A: Its GI50 is 2210 nM.

Q: And the GI50 at 72 h [3]?
A: The GI50 at 72 h was over 100000 nM.

Q: With `CN1CCN(Cc2cc(NC(=O)c3cccc(C#Cc4cccc5[nH]nc(N)c45)c3)cc(C(F)(F)F)c2)CC1` as the compound, how does the IC50 (Bcr/Abl fusion protein [1]) read?
A: Its IC50 is 1630 nM.

Q: And the IC50 (Bcr/Abl fusion protein [10])?
A: The IC50 was 56.7 nM.

Q: And the GI50 (K562 [2])?
A: Its GI50 is 300 nM.

Q: What about the GI50 at 72 h [3] of the same compound?
A: The GI50 at 72 h was over 100000 nM.

Q: Which inhibition of growth at 10 µM (CCRF-CEM [4]) does the source give for `Cc1cn(-c2cc(NC(=O)c3cccc(C#Cc4cccc5[nH]nc(N)c45)c3)cc(C(F)(F)F)c2)cn1` here?
A: Its inhibition of growth at 10 µM is 85%.

Q: And the IC50 (Bcr/Abl fusion protein [1])?
A: The IC50 was 824 nM.

Q: What about the IC50 (Bcr/Abl fusion protein [10]) of the same compound?
A: The IC50 was 25.8 nM.

Q: And the inhibition of growth at 10 µM (RPMI-8226 [5])?
A: Its inhibition of growth at 10 µM is 86.2%.

Q: What about the GI50 (K562 [6]) of the same compound?
A: Its GI50 is under 10 nM.

Q: What about the GI50 (CCRF-CEM [11]) of the same compound?
A: The GI50 was 4880 nM.

Q: And the inhibition of growth at 10 µM (MOLT-4 [7])?
A: Its inhibition of growth at 10 µM is 79.3%.

Q: What about the GI50 (RPMI-8226 [12]) of the same compound?
A: The GI50 was 4540 nM.

Q: And the inhibition of growth at 10 µM (K562 [13])?
A: The inhibition of growth at 10 µM was 96.8%.

Q: What about the GI50 (SR [14]) of the same compound?
A: Its GI50 is 5060 nM.

Q: What about the RatioGI50 [15] of the same compound?
A: The RatioGI50 was 322.

Q: And the GI50 (HL-60(TB) [16])?
A: The GI50 was 3220 nM.

Q: What about the inhibition of growth at 10 µM (SR [8]) of the same compound?
A: Its inhibition of growth at 10 µM is 71.7%.

Q: And the inhibition of growth at 10 µM (HL-60(TB) [9]; read-out: GI)?
A: Its inhibition of growth at 10 µM is 87.5%.

Q: And the GI50 (K562 [2])?
A: The GI50 was 150 nM.

Q: What about the GI50 (MOLT-4 [17]) of the same compound?
A: The GI50 was 3840 nM.

Q: And the GI50 at 72 h [3]?
A: Its GI50 at 72 h is 12900 nM.

Q: For `Nc1n[nH]c2cccc(C#Cc3cccc(C(=O)Nc4ccc(CN5CCOCC5)c(C(F)(F)F)c4)c3)c12`, which IC50 (Bcr/Abl fusion protein [1]) is on record?
A: The IC50 was 1610 nM.

Q: And the IC50 (Bcr/Abl fusion protein [10])?
A: The IC50 was 194 nM.

Q: What about the GI50 (K562 [2]) of the same compound?
A: The GI50 was 570 nM.

Q: What about the GI50 at 72 h [3] of the same compound?
A: Its GI50 at 72 h is over 100000 nM.

Q: Which IC50 (Bcr/Abl fusion protein [1]) does the source give for `Nc1n[nH]c2cccc(C#Cc3cccc(C(=O)Nc4cc(C(F)(F)F)cc(C(F)(F)F)c4)c3)c12` here?
A: Its IC50 is 1480 nM.

Q: And the GI50 (K562 [2])?
A: Its GI50 is 520 nM.

Q: What about the GI50 at 72 h [3] of the same compound?
A: Its GI50 at 72 h is over 100000 nM.

Q: For `Cc1cn(-c2cc(C(=O)Nc3cccc(C#Cc4cccc5[nH]nc(N)c45)c3)cc(C(F)(F)F)c2)cn1`, which IC50 (Bcr/Abl fusion protein [1]) is on record?
A: The IC50 was 1440 nM.

Q: And the IC50 (Bcr/Abl fusion protein [10])?
A: The IC50 was 15.4 nM.

Q: What about the GI50 (K562 [2]) of the same compound?
A: Its GI50 is 70 nM.

Q: And the GI50 at 72 h [3]?
A: Its GI50 at 72 h is 10900 nM.

Q: For `Nc1n[nH]c2cccc(C#Cc3cccc(C(=O)Nc4ccc(Cl)c(C(F)(F)F)c4)c3)c12`, which IC50 (Bcr/Abl fusion protein [1]) is on record?
A: The IC50 was 1420 nM.

Q: What about the GI50 (K562 [2]) of the same compound?
A: The GI50 was 3810 nM.

Q: What about the GI50 at 72 h [3] of the same compound?
A: The GI50 at 72 h was over 100000 nM.

Q: With `Nc1n[nH]c2cccc(C#Cc3cccc(C(=O)Nc4cc(CN5CCOCC5)cc(C(F)(F)F)c4)c3)c12` as the compound, how does the IC50 (Bcr/Abl fusion protein [1]) read?
A: The IC50 was 2510 nM.

Q: And the IC50 (Bcr/Abl fusion protein [10])?
A: The IC50 was 571 nM.

Q: What about the GI50 (K562 [2]) of the same compound?
A: Its GI50 is 830 nM.

Q: And the GI50 at 72 h [3]?
A: Its GI50 at 72 h is 16700 nM.

Reference: ChEMBL document CHEMBL4765455, “Design, synthesis, and biological evaluations of novel 3-amino-4-ethynyl indazole derivatives as Bcr-Abl kinase inhibitors with potent cellular antileukemic activity” (Eur J Med Chem, 2020)
